ChEMBL document CHEMBL5465560, “Selectivity Literature for EUbOPEN Chemogenomic Library” (2024)
One block for each compound: values may come before it.

Columns and labels:
[1] = target: T1, Testis-specific serine/threonine-protein kinase 3 (Homo sapiens) (UniProt Q96PN8); assay: Selectivity interaction (Kinase panel (Z-LYTE Assay)) EUB0001632a TSSK3; settings: at 10 µM
T1 sequence (whole entry): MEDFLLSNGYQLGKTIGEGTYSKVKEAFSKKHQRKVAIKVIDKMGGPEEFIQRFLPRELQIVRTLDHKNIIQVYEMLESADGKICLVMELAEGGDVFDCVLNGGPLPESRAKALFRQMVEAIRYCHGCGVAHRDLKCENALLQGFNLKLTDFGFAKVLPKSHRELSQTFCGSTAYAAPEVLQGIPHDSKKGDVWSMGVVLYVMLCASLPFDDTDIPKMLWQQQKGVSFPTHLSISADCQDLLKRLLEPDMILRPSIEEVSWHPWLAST

[2] = target: Proto-oncogene tyrosine-protein kinase Src (Homo sapiens, UniProt P12931); assay: Selectivity interaction (KinomeScan (DiscoverX)) EUB0001868a SRC; settings: at 1 µM
Proto-oncogene tyrosine-protein kinase Src, sequence (P12931 2-536 limits assumed): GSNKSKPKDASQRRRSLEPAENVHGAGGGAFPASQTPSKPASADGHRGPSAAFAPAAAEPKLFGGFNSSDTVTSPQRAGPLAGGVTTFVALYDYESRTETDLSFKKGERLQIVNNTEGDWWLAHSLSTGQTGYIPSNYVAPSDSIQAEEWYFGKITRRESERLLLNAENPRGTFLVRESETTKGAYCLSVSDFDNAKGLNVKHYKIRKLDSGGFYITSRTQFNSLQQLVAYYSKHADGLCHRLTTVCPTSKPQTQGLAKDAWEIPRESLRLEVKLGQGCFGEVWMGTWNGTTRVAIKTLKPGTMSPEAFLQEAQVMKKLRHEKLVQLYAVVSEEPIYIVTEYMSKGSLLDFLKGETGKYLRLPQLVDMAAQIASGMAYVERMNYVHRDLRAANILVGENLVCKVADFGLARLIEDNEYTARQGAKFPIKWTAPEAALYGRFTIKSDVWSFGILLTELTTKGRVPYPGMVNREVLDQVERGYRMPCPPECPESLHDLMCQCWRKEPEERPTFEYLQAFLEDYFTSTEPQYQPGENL

[3] = target: T2, Calcium/calmodulin-dependent protein kinase type IV (Homo sapiens) (UniProt Q16566); assay: Selectivity interaction (Upstate Kinase Profiler service (Millipore)) EUB0000056c CAMK4; settings: at 1 µM
T2 sequence (whole entry): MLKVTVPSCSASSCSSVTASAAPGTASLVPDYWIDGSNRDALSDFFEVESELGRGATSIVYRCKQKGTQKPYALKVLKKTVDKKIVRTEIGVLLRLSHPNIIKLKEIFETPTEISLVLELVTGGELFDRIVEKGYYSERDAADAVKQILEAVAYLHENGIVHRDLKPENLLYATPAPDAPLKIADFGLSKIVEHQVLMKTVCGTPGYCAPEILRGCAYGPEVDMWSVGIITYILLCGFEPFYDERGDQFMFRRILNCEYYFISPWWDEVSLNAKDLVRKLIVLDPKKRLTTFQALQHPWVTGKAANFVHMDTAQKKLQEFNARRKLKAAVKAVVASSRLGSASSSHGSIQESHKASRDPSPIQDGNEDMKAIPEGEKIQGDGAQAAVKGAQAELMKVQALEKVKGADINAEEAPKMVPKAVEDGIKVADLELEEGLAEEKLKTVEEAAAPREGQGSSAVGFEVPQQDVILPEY

[4] = target: Serine/threonine-protein kinase tousled-like 2 (Homo sapiens) (UniProt Q86UE8); assay: Selectivity interaction (ActivX KiNativ screen (kinase selectivity in THP-1 cell lysates)) EUB0000639a TLK2; format: subcellular; settings: lysate, at 0.01 µM
Serine/threonine-protein kinase tousled-like 2 (Homo sapiens), sequence (Q86UE8 whole entry, looked up): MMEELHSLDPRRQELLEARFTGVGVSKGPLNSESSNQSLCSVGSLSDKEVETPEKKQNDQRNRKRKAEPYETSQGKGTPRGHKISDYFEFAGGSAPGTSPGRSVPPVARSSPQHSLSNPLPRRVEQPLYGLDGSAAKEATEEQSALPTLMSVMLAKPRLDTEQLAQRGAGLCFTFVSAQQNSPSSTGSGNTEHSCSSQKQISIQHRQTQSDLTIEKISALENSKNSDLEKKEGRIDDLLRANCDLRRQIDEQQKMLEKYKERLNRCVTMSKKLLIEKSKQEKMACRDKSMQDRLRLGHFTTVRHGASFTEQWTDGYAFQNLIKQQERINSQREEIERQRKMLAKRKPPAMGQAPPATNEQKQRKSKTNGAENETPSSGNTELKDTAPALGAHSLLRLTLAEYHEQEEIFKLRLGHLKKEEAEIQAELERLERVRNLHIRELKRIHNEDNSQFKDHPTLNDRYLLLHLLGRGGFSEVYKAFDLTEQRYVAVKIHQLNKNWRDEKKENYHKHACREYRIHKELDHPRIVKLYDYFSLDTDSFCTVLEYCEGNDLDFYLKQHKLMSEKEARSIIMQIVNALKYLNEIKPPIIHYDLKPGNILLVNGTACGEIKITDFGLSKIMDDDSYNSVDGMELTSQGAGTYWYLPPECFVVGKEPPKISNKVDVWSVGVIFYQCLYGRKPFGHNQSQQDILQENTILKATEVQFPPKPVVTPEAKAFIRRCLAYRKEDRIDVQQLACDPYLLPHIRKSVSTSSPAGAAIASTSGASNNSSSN

[5] = target: Receptor tyrosine-protein kinase erbB-4 (Homo sapiens, UniProt Q15303); assay: Selectivity interaction (KinomeScan (DiscoverX)) EUB0000595a ERBB4; settings: at 10 µM
Receptor tyrosine-protein kinase erbB-4, sequence (Q15303 whole entry): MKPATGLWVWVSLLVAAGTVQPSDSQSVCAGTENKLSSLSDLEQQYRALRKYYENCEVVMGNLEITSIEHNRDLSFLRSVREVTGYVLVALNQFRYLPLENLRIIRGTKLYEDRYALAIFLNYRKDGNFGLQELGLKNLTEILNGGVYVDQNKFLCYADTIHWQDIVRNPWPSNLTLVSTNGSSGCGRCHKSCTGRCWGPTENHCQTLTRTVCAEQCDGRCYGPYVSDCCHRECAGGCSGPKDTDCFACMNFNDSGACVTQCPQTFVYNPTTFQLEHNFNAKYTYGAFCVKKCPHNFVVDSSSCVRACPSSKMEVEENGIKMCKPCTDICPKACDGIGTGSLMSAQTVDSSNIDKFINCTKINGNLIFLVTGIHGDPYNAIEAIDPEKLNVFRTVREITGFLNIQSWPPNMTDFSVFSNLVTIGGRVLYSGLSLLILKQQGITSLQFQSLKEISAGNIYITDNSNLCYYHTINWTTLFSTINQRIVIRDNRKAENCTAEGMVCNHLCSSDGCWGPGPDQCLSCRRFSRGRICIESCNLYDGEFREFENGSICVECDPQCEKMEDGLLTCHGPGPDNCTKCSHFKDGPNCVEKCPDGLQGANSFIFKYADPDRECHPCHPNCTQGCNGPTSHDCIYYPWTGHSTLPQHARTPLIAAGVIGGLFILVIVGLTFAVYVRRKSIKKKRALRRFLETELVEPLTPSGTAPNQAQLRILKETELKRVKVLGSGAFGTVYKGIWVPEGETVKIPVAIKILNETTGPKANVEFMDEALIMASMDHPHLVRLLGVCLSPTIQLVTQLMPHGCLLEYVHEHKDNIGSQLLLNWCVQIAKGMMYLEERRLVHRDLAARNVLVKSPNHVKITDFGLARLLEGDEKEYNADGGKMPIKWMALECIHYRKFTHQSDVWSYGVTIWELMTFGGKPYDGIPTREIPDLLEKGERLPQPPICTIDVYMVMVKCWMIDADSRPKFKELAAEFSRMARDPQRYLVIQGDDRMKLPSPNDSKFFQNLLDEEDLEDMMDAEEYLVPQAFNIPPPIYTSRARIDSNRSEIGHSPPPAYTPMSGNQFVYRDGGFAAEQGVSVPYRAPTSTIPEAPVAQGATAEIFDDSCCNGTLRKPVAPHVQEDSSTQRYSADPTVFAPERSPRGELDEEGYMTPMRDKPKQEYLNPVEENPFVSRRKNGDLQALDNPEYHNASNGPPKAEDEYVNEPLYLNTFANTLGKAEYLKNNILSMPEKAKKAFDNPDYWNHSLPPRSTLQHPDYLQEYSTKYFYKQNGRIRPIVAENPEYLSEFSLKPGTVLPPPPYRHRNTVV

[6] = target: T3, Peripheral plasma membrane protein CASK (Homo sapiens) (UniProt O14936); assay: Selectivity interaction (Ambit KINOMEscan and KiNATiv profiling in Jurkat cells) EUB0000090b CASK; format: cell-based; settings: at 1 µM
T3 sequence (whole entry): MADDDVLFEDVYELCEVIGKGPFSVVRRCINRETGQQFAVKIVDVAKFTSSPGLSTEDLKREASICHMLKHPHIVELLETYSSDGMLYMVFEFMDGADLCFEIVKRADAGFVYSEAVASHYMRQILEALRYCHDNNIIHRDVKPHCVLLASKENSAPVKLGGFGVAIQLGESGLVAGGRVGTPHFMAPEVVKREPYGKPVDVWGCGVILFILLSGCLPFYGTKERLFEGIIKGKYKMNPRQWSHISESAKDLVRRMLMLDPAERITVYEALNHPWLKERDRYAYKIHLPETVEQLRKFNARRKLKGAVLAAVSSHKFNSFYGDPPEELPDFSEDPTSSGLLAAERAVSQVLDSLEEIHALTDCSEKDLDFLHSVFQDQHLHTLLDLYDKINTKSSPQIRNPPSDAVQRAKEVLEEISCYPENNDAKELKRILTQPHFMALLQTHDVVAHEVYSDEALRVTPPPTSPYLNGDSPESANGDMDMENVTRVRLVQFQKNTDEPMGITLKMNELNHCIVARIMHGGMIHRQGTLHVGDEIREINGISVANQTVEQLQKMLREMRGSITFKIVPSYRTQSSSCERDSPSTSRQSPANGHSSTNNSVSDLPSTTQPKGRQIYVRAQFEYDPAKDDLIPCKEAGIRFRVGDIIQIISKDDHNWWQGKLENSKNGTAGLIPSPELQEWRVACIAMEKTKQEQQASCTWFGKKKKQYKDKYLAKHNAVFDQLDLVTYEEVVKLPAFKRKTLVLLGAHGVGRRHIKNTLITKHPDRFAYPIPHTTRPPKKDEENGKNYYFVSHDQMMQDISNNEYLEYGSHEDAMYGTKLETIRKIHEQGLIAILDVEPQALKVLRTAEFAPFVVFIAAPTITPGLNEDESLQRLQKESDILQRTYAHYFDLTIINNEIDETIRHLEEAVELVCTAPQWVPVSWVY

[7] = target: T4, cGMP-dependent protein kinase 2 (Homo sapiens) (UniProt Q13237); assay: Selectivity interaction (KinomeScan (DiscoverX)) EUB0000045b PRKG2
T4 sequence (whole entry): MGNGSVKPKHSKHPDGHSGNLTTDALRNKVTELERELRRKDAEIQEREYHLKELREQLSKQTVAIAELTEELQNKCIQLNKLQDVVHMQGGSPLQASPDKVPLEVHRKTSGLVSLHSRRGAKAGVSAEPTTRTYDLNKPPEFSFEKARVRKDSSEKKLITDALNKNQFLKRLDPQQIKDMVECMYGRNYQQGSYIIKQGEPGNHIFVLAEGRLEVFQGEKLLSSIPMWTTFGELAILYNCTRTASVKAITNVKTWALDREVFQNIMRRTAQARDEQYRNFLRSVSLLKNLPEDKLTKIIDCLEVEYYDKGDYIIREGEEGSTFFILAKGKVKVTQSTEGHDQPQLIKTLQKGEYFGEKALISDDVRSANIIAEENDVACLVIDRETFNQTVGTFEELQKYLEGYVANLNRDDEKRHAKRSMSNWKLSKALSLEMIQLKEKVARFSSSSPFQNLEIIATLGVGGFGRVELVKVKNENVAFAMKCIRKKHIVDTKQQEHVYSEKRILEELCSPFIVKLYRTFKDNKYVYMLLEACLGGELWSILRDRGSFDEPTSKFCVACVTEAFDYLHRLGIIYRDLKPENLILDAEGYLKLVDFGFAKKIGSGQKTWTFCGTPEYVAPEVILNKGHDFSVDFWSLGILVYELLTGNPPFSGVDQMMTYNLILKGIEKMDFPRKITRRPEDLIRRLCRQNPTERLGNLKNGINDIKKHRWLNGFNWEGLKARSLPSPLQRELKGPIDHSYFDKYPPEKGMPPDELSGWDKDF

[8] = target: Histone acetyltransferase p300 (Homo sapiens) (UniProt Q09472); assay: Selectivity interaction (Transferase panel (protein, RNA, and DNA methyltransferases. and EP300 (acetyltransferase))) EUB0000270b EP300
Histone acetyltransferase p300 (Homo sapiens), sequence (Q09472 whole entry): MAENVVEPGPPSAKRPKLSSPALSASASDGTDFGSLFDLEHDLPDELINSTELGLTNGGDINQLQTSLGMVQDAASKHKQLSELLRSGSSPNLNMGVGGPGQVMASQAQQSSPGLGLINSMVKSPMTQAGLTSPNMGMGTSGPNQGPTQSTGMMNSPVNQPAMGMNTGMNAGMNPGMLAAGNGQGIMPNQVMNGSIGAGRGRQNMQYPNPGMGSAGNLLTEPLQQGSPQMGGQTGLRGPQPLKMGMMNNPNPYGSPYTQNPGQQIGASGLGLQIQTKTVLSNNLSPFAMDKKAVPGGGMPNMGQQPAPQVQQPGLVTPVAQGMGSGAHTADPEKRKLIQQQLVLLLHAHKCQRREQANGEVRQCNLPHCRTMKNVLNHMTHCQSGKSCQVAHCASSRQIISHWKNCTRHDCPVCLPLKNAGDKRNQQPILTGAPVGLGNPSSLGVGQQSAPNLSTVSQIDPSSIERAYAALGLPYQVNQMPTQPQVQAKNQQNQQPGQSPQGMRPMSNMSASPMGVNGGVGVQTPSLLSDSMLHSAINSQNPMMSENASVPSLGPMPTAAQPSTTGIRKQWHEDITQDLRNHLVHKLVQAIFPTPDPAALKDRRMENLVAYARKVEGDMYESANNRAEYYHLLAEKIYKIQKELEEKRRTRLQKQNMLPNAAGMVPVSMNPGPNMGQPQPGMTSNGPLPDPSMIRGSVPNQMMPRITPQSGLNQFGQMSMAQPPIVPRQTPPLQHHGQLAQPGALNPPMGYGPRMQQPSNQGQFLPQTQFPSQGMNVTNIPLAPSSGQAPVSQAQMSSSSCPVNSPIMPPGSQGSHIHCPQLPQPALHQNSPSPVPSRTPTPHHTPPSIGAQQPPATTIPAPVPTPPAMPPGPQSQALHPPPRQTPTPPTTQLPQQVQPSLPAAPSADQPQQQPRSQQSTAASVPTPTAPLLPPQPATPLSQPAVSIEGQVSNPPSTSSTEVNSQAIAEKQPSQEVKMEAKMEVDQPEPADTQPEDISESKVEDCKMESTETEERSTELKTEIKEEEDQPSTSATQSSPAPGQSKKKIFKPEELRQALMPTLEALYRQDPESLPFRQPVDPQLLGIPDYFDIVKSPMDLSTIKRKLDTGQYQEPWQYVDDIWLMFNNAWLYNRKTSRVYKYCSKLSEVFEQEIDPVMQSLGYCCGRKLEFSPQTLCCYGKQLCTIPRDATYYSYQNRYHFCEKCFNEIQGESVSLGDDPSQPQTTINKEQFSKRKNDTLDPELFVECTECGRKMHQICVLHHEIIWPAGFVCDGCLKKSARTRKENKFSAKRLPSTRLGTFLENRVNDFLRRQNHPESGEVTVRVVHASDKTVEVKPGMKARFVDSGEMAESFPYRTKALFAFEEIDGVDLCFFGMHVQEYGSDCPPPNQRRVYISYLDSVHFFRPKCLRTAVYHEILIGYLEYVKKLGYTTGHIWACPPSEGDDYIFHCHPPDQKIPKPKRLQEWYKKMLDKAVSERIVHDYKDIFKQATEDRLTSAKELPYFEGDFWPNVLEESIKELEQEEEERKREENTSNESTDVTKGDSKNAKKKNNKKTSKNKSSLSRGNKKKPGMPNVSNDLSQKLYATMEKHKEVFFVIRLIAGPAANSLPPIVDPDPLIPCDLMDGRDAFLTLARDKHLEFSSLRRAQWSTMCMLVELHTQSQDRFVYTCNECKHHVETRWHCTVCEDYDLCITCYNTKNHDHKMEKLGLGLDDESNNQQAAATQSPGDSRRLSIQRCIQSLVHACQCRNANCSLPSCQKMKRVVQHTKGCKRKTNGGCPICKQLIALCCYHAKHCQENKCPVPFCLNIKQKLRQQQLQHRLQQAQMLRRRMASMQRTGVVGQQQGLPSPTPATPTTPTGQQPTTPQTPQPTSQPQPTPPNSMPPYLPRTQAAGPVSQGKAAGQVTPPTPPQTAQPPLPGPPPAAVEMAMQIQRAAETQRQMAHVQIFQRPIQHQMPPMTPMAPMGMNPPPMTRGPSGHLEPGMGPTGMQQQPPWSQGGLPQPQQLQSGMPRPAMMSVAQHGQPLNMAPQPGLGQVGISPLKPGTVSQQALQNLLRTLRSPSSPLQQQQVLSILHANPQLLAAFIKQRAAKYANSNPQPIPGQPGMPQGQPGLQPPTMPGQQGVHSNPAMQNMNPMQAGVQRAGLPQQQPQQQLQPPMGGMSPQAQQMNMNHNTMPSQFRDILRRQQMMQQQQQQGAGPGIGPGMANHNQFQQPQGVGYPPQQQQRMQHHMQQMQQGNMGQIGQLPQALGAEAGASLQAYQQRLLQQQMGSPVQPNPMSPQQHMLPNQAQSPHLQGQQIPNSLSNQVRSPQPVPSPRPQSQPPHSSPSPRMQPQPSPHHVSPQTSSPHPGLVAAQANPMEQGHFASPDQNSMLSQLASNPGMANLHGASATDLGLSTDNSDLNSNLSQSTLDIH

[9] = target: Cyclin-G-associated kinase (Homo sapiens, UniProt O14976); assay: Selectivity interaction (Competition-binding assay (DiscoverX)) EUB0000229b GAK

% of control [1]: 4.44%
Structure (SMILES): Cn1cc(-n2cnc3c(NCc4nc5cc(Cl)c(Cl)cc5[nH]4)nc(N4CCOCC4)nc32)cn1

% of control [2]: 31%
Structure (SMILES): Cc1cc(-c2ccnc(Nc3cnn(C)c3)n2)ccc1CNC(=O)N1CC(OC(C)C)C1

% of inhibition [3]: 15%
Structure (SMILES): Cc1ccc(-c2ccc3c(ccc4sc5c(c43)NC[C@@H](C)NC5=O)n2)cn1

% of inhibition [4]: 0.7%
Structure (SMILES): CC[C@@H]1[C@H](F)C(=O)N[C@@H]1COc1nccc2cc(C(N)=O)c(OC)cc12 [ZIMLOVISERTIB]

Structure (SMILES): COCC(=O)NC/C=C/c1ccc2ncnc(Nc3ccc(Oc4ccc(C)nc4)c(C)c3)c2c1 [CP-724714]
% of control [5]: 0.9%

Structure (SMILES): CN(C)C/C=C/C(=O)Nc1ccc(C(=O)N2CCCC(Nc3ncc(Cl)c(-c4c[nH]c5ccccc45)n3)C2)cc1 (stereo unspecified)
% of control [6]: 90%

Structure (SMILES): C=CC(=O)Nc1cc(-n2c(=O)ccc3cnc4ccc(-c5ccc(NS(C)(=O)=O)cc5)cc4c32)ccc1C
% of control ([7]; at 1 µM): 100%
% of control ([7]; at 10 µM): 95%

% activity ([8]; at 1 µM): > 90%
% activity ([8]; at 10 µM): > 80%
Structure (SMILES): Cc1cc(CN)cc(C)c1-c1ncn(C)c1-c1cncn1C

Structure (SMILES): COc1cc(N(C)c2ccnc3ccc(C(F)(F)F)cc23)cc(OC)c1OC
Kd [9]: 7.1 µM
